These results are taken from US20090269330A1, “FATTY ACID TRIGLYCERIDES FOR MAKING BIOCOMPATIBLE COATINGS” (ZISCOAT NV, priority 2006, published 2009).

A short description of the data set: In vitro drug release from enzymatically transesterified triglyceride coating on stainless steel samples. The settings on record: 5 weight % paclitaxel in enzymatically transesterified triglyceride coating; PBS with 0.02% (w/v) sodium azide, 37° C.; after 5 weeks; HPLC. Type of data set: physicochemical. The protocol: Transesterified triglyceride mixtures were made using the following procedure: • 30 weight % tristearin, 30 weight % triolein, 40 weight % trilinolein are put in a vacuum furnace at 70° C. during 1 hour • the mixture is stirred during 30 minutes at 75° C. • 1% of 1,3 specific lipase (lipozyme) is added to the mixture at 75° C. during 1 hour. • Filtration over Whatman no. 4 filter. The slip melting point of the resulting mixture was 60° C.
5 weight % of paclitaxel (taxol) and acetone were added to this triglyceride mixture, heated to 50° C. and stirred until homogeneous. Stainless steel samples were dipped into the solution followed by air-drying. The samples were put into 5 ml of release medium (PBS with 0.02% (w/v) sodium azide) at 37° C. and continuously shaken with a rocking table. At different time points, samples were put in a new vial with fresh release medium. The medium of the previous vials were analyzed with HPLC to determine the concentration of paclitaxel that was released. After the test, the remaining paclitaxel was liberated from the coating on the stainless steel samples by dissolving the coating in acetone at 50° C.

On to `CC(=O)O[C@H]1C(=O)[C@@]2(C)[C@H]([C@H](OC(=O)c3ccccc3)[C@]3(O)C[C@H](OC(=O)[C@H](O)[C@@H](NC(=O)c4ccccc4)c4ccccc4)C(C)=C1C3(C)C)[C@]1(OC(C)=O)CO[C@@H]1C[C@@H]2O` [paclitaxel], for which the “percentage of drug released from coating” value was found to be 75%.
